Laboratory results: patent US9423396B2, “Bodipy structure fluorescence probes for diverse biological applications” (National University of Singapore, priority 2011, dated 2016)

Tests used:
Beta TC-6 cells = assay: High throughput cell-based screening on acinar, Alpha TC-1 and Beta TC-6 cells; set-up: species or system mouse; conditions: 1 μM, 1 hr to 48 hours, 384-well plates
Protocol: To discover pancreatic islet selective probes, we expanded the other two types of BODIPY library generated from the original GY (Glucagon Yellow) structure. We started with high throughput cell-based screening using mouse acinar cells composed of exocrine tissue, mouse Alpha TC-1 cells and Beta TC-6 cells composed of endocrine pancreas islets. Those three different types of cells were prepared side by side in 384-well plates and incubated with 1 μM of BODIPY compounds for different incubation times ranging from 1 hr to 48 hours. The fluorescence images were acquired on an automated imaging microscope system ImageXpress Micro™. The fluorescence intensity of the stained cells was analyzed using MetaXpress® image processing software.

[1] = Spectroscopic measurements (absorption, emission, quantum yield, extinction coefficient); type: physicochemical
[2] = BDNCA library, difference emission minus absorption
[3] = BDNCA library, extinction coefficient; in M-1 cm-1 (unit assumed)
[4] = BDNCA library, fluorescence emission
[5] = absorption maximum, BDNCA library
[6] = extinction coefficient, BDNCA library; in M-1 cm-1 (unit assumed)
[7] = fluorescence emission maximum, BDNCA library
[8] = difference of emission and absorption maxima

| Compound | staining of alpha cells and beta cells compared with acinar cells (Beta TC-6 cells) | Qunt. Yield ([1]; BDNCA library) | Abs ([1]; BDNCA library, absorption) | Flu-Abs [1, 2] | ε [1, 3] | Flu [1, 4] | Abs [1, 5] | ε [1, 6] | Flu [1, 7] | Qunt. Yield ([1]; quantum yield, BDNCA library) | Flu-Abs [1, 8] |
| --- | --- | --- | --- | --- | --- | --- | --- | --- | --- | --- | --- |
| Cc1cc(/C=C/c2ccc(-c3ccccc3)cc2)n2c1C(c1ccc(NC(=O)CCl)cc1)=C1C=CC=[N+]1[B-]2(F)F [BDNCA-5] | stained either both alpha cells and beta cells or beta cells only as compared with acinar cells | 0.09 | 566 nm | 23 | 39,542 | 589 | – | – | – | – | – |
| CC1=CC(/C=C/c2cc(C)c(OCc3ccccc3)c(C)c2)=[N+]2C1=C(c1ccc(NC(=O)CCl)cc1)c1cccn1[B-]2(F)F [BDNCA-16] | stained either both alpha cells and beta cells or beta cells only as compared with acinar cells | 0.13 | 562 nm | 23 | 55,469 | 585 | – | – | – | – | – |
| Cc1cc(/C=C/c2ccc(N(C)C)c3ccccc23)n2c1C(c1ccc(NC(=O)CCl)cc1)=C1C=CC=[N+]1[B-]2(F)F [BDNCA-377] | – | – | – | – | – | – | 590 nm | 58,215 | weak | weak | – |
| Cc1cc(/C=C/c2ccc(OCc3ccc(F)cc3)cc2)n2c1C(c1ccc(NC(=O)CCl)cc1)=C1C=CC=[N+]1[B-]2(F)F [BDNCA-378] | – | – | – | – | – | – | 566 nm | 92,540 | 597 | 0.16 | 31 |
| CC1=CC(/C=C/c2ccccc2I)=[N+]2C1=C(c1ccc(NC(=O)CCl)cc1)c1cccn1[B-]2(F)F [BDNCA-384] | – | – | – | – | – | – | 555 nm | 60,686 | 578 | 0.11 | 23 |
| CCOc1cc(/C=C/C2=[N+]3C(=C(c4ccc(NC(=O)CCl)cc4)c4cccn4[B-]3(F)F)C(C)=C2)ccc1O [BDNCA-397] | – | – | – | – | – | – | 573 nm | 38,444 | 613 | 0.01 | 40 |
| CC1=CC(/C=C/c2cccc(B(O)O)c2)=[N+]2C1=C(c1ccc(NC(=O)CCl)cc1)c1cccn1[B-]2(F)F [BDNCA-404] | – | – | – | – | – | – | 556 nm | 18,124 | 574 | 0.03 | 18 |
| Cc1cc(/C=C/c2cc(Cl)ccc2Cl)n2c1C(c1ccc(NC(=O)CCl)cc1)=C1C=CC=[N+]1[B-]2(F)F [BDNCA-407] | – | – | – | – | – | – | 555 nm | 42,288 | 575 | 0.07 | 20 |
| Cc1cc(/C=C/c2ccc(Br)cc2)n2c1C(c1ccc(NC(=O)CCl)cc1)=C1C=CC=[N+]1[B-]2(F)F [BDNCA-409] | – | – | – | – | – | – | 557 nm | 87,597 | 577 | 0.14 | 20 |
| CC1=CC(/C=C/C2CCCCC2)=[N+]2C1=C(c1ccc(NC(=O)CCl)cc1)c1cccn1[B-]2(F)F [BDNCA-414] | – | – | – | – | – | – | 524 nm | 49,428 | 547 | 0.09 | 23 |
| CC1=CC(/C=C/C=C/c2ccco2)=[N+]2C1=C(c1ccc(NC(=O)CCl)cc1)c1cccn1[B-]2(F)F [BDNCA-417] | – | – | – | – | – | – | 519 nm | 13,730 | weak | weak | – |
| CC1=CC(/C=C/c2cccs2)=[N+]2C1=C(c1ccc(NC(=O)CCl)cc1)c1cccn1[B-]2(F)F [BDNCA-423] | – | – | – | – | – | – | 569 nm | 61,510 | 594 | 0.10 | 25 |
| CC1=CC(/C=C/c2ccc(-c3ccccc3)c(F)c2)=[N+]2C1=C(c1ccc(NC(=O)CCl)cc1)c1cccn1[B-]2(F)F [BDNCA-425] | – | – | – | – | – | – | 562 nm | 46,957 | 583 | 0.11 | 21 |
| CC1=CC(/C=C/c2ccc(-c3ccc(Br)cc3)o2)=[N+]2C1=C(c1ccc(NC(=O)CCl)cc1)c1cccn1[B-]2(F)F [BDNCA-428] | – | – | – | – | – | – | 506 nm | 17,025 | 657 | 0.02 | 151 |
| CCOc1ccc(/C=C/C2=[N+]3C(=C(c4ccc(NC(=O)CCl)cc4)c4cccn4[B-]3(F)F)C(C)=C2)cc1 [BDNCA-429] | – | – | – | – | – | – | 566 nm | 64,531 | 599 | 0.14 | 33 |
| CC1=CC(/C=C/c2c(C)nn(C)c2C)=[N+]2C1=C(c1ccc(NC(=O)CCl)cc1)c1cccn1[B-]2(F)F [BDNCA-430] | – | – | – | – | – | – | 567 nm | 37,895 | 601 | 0.09 | 34 |
| CC1=CC(/C=C/c2cccc(Oc3ccc(C(C)(C)C)cc3)c2)=[N+]2C1=C(c1ccc(NC(=O)CCl)cc1)c1cccn1[B-]2(F)F [BDNCA-435] | – | – | – | – | – | – | 556 nm | 61,510 | 576 | 0.13 | 20 |
| CC1=CC(/C=C/c2ccc(Cl)c(F)c2)=[N+]2C1=C(c1ccc(NC(=O)CCl)cc1)c1cccn1[B-]2(F)F [BDNCA-437] | – | – | – | – | – | – | 556 nm | 47,506 | 575 | 0.09 | 19 |
| COc1cc(/C=C/c2cc(C)c3n2[B-](F)(F)[N+]2=CC=CC2=C3c2ccc(NC(=O)CCl)cc2)ccc1OCCN1CCCC1 [BDNCA-458] | – | – | – | – | – | – | 569 nm | 25,538 | 608 | 0.06 | 39 |
